“Also recorded” adds a separate entry of the source. Like-named read-outs stand apart in the source and are kept apart here.
What was measured:
[1] = biological target: SARS-CoV-2 Spike S1 (RBD) (Severe acute respiratory syndrome coronavirus 2, UniProt P0DTC2); assay: biochemical; assay type: binding
[2] = test system: SARS-CoV-2; assay type: cell-based
[3] = test system: SARS-CoV-2; assay: SARS-CoV-2 viral load by RT-qPCR in Calu-3 supernatant; assay type: cell-based
[4] = test system: SARS-CoV-2-induced cytokine and chemokine production; assay type: cell-based; details: Calu-3 cells; Cases A-C
[5] = test system: SARS-CoV-2; assay: hamster model of SARS-CoV-2 infection, intranasally inhaled treatment; assay type: in vivo
[6] = test system: SARS-CoV-2; assay: combination therapy, viral load by RT-PCR (ORF1ab gene) in Calu-3 cells; assay type: cell-based; set-up: key to enhanced decrease of viral load, combination vs two single agents: Each combination that showed an enhanced decrease of viral load as compared with the two single agents is denoted by “E”; Combinations that showed a slight trend towards an enhanced decrease of viral load as compared with the two single agents is denoted by “(e)”; —
[7] = test system: Calu-3 cells; details: Calu-3 cells or Vero cells

SMILES: O=C([O-])C[C@H](O)C[C@H](O)/C=C/c1c(C2CC2)nc2ccccc2c1-c1ccc(F)cc1.O=C([O-])C[C@H](O)C[C@H](O)/C=C/c1c(C2CC2)nc2ccccc2c1-c1ccc(F)cc1.[Ca+2] [INS103, Pitavastatin Calcium]
- binding to SARS-COV-2 S-protein (in words) ([1]; MST binding assay): bind with SARS-COV-2 S-protein at nanomolar (nM) concentrations
- Kd ([1]; Table 1, MST, 25 nM labelled SARS-CoV-2 S1, read-out: Affinity): 678 to 1000 nM
- Remarks ([1]; Table 1, binding to SARS-CoV-2 S1): Good binding
- S/N ([1]; Table 1, signal to noise ratio of MST binding): 14.4-17.3
- Kd ([1]; Table 2, read-out: Affinity (nM) of binding to SARS-COV2 Spike protein): 678 to 1000 nM
- SARS-CoV-2-induced loss of cell viability in Calu-3 cells (overall conclusion) ([2]; Calu-3 cells): inhibited SARS-CoV-2-induced loss of cell viability
- protection against virus-induced loss of cell viability ([2]; Case A: compound added 1 h after infection, 72 h contact): dose-dependent protection
- Average (percent cell viability) ([2]; Case A: compound added 1 h after infection, 72 h contact, 0.2 uM): 4.83%
- Average (percent cell viability) ([2]; Case A: compound added 1 h after infection, 72 h contact, 1 uM): 9.66%
- Average (percent cell viability) ([2]; Case A: compound added 1 h after infection, 72 h contact, 5 uM): 17.37%
- Average (percent cell viability) ([2]; Case B: compound added 24 h after infection, 48 h contact, 0.2 uM): 0.5243%
- Average (percent cell viability) ([2]; Case B: compound added 24 h after infection, 48 h contact, 1 uM): 1.724%
- Average (percent cell viability) ([2]; Case B: compound added 24 h after infection, 48 h contact, 5 uM): −3.025%
- Average (percent cell viability) ([2]; Case C: compound added 48 h after infection, 24 h contact, 0.2 uM): 1.847%
- Average (percent cell viability) ([2]; Case C: compound added 48 h after infection, 24 h contact, 1 uM): −1.192%
- Average (percent cell viability) ([2]; Case C: compound added 48 h after infection, 24 h contact, 5 uM): −1.208%
- Average (percent cell viability) ([2]; Case D: pre-treated 6 h, then infected 72 h, 0.2 uM): 34.83%
- Average (percent cell viability) ([2]; Case D: pre-treated 6 h, then infected 72 h, 1 uM): 32.21%
- Average (percent cell viability) ([2]; Case D: pre-treated 6 h, then infected 72 h, 5 uM): 28.3%
- protection against virus-induced loss of cell viability ([2]; Case D: pre-treated 6 hours, then infected 72 hours): dose-independent protection
- protection against virus-induced loss of cell viability ([2]; Case D: pre-treated 6 hours, then infected 72 hours, listed as INS-103): inhibit SARS-CoV-2-induced loss of cell viability
- Average (percent cell viability) ([2]; Case E: pre-treated 24 h, then infected 72 h, 0.2 uM): −3.00%
- Average (percent cell viability) ([2]; Case E: pre-treated 24 h, then infected 72 h, 1.0 uM): −0.20%
- Average (percent cell viability) ([2]; Case E: pre-treated 24 h, then infected 72 h, 5.0 uM): 46.71%
- protection against virus-induced loss of cell viability ([2]; Case E: pre-treated 24 hours, then infected 72 hours, high and medium doses of INS102, high dose of INS103): dose-dependent protection
- anti-viral protection (cell viability) ([2]; Case F: 1 hour, then virus 72 hours, high dose of INS102, all doses of INS103): dose-dependent anti-viral protection
- Average (percent cell viability) ([2]; Case F: compound 1 h before infection (coinc 1 h), then virus 72 h, 0.2 uM): 9.881%
- Average (percent cell viability) ([2]; Case F: compound 1 h before infection (coinc 1 h), then virus 72 h, 1 uM): 15.82%
- Average (percent cell viability) ([2]; Case F: compound 1 h before infection (coinc 1 h), then virus 72 h, 5 uM): 19.96%
- SARS-CoV-2 viral load ([3]; Cases A-C, 5, 1, 0.2 μM): dose-dependently reduced viral load
- SARS-CoV-2 viral load ([3]; high dose 5 uM): reduced SARS-CoV-2 viral load
- SARS-CoV-2-induced cytokine and chemokine production [4]: inhibited
- viral titers in throat swabs ([5]; 3 mg/kg i.n., Day 1): reduced viral titers
- viral titer in the nasal swabs and tracheas ([5]; 3 mg/kg i.n., Day 3 post-infection): reduction of viral titer
- viral titer in lung samples ([5]; 3 mg/kg i.n., Day 3 post-infection, R4 samples): significant decrease in viral titer
- percentage of affected lung (inflammation) ([5]; 3 mg/kg i.n., day 6, virus-infected controls ˜50%): ~30%
- viral titers in throat swabs (reduction trend) ([5]; 3 mg/kg i.n., days 2 or 3): not observed
- viral titers from the nasal swabs ([5]; 3 mg/kg i.n., vs DPBS or control vehicle (DV)): trend of reduced viral titers
- lung inflammation (histopathology) ([5]; 3 mg/kg i.n., vs controls): reduction in acute ling inflammation; also recorded: mild/moderate reduction in lung inflammation
- weight loss of infected hamsters ([5]; pitavastatin 3 mg/kg i.n., D-2 to 5, statistical significance at day 4): less weight loss
- decrease in viral load, combination with remdesivir or dexamethasone vs monotherapies ([6]; FIGS. 30, 31, statin and SARS-CoV-2 (MOI 0.01) mixed 1 hour at room temperature, 24 hours post infection): enhanced
- enhanced decrease of viral load, combination vs two single agents ([6]; statin 0.2 μM + Dex 0.1 μM): —
- enhanced decrease of viral load, combination vs two single agents ([6]; statin 0.2 μM + Dex 1 μM): (e)
- enhanced decrease of viral load, combination vs two single agents ([6]; statin 0.2 μM + Dex 10 μM): —
- enhanced decrease of viral load, combination vs two single agents ([6]; statin 0.2 μM + Remde 1): (e)
- enhanced decrease of viral load, combination vs two single agents ([6]; statin 0.2 μM + Remde 10): (e)
- enhanced decrease of viral load, combination vs two single agents ([6]; statin 0.2 μM + Remde 100): (e)
- enhanced decrease of viral load, combination vs two single agents ([6]; statin 1 μM + Dex 0.1 μM): —
- enhanced decrease of viral load, combination vs two single agents ([6]; statin 1 μM + Dex 1 μM): enhancement in the decrease of viral load and E
- enhanced decrease of viral load, combination vs two single agents ([6]; statin 1 μM + Dex 10 μM): —
- enhanced decrease of viral load, combination vs two single agents ([6]; statin 1 μM + Remde 1): —
- enhanced decrease of viral load, combination vs two single agents ([6]; statin 1 μM + Remde 10): —
- enhanced decrease of viral load, combination vs two single agents ([6]; statin 1 μM + Remde 100): —
- enhanced decrease of viral load, combination vs two single agents ([6]; statin 5 μM + Dex 0.1 μM): E
- enhanced decrease of viral load, combination vs two single agents ([6]; statin 5 μM + Dex 1 μM): —
- enhanced decrease of viral load, combination vs two single agents ([6]; statin 5 μM + Dex 10 μM): —
- enhanced decrease of viral load, combination vs two single agents ([6]; statin 5 μM + Remde 1): —
- enhanced decrease of viral load, combination vs two single agents ([6]; statin 5 μM + Remde 10): —
- enhanced decrease of viral load, combination vs two single agents ([6]; statin 5 μM + Remde 100): —
- cytotoxicity [7]: not cytotoxic
